Test results published in US20250025451A1, “TREATMENT OF CANCER WITH KDM4 INHIBITORS” (Celgene Corporation, priority 2021, published 2025).
Values after ≈ are worked out from the molar mass of the structure shown. Where two headings read alike, the source gives them in different places.

Key:
[1] = system: erythroid hematopoietic progenitor cells derived from human bone marrow; assay: erythroid colony formation of hematopoietic progenitor cells; assay type: cell-based; conditions: 336 h, human bone marrow progenitor cells
Method: (§1) Compound 1 was evaluated for its effects on proliferation of erythroid and myeloid hematopoietic progenitor cells derived from human bone marrow at […] Technologies Inc. (Vancouver, BC, Canada).
(§2) Cells were thawed rapidly at 37° C. into DNAse I and then diluted in 10 mL of Iscove's Modified Dulbecco's medium containing 2% fetal bovine serum (IMDM+2% FBS) and washed by centrifugation (1200 rpm for 10 minutes at room temperature). The supernatant was discarded and the cell pellet resuspended in a known volume of IMDM+2% FBS. A nucleated cell count (3% glacial acetic acid) and viability assessment (trypan blue exclusive test) were performed.
(§3) Compound 1 and positive control (panobinostat) were diluted in DMSO and tested at concentrations ranging from 0.002 μM to 5 μM in final media. These dilutions provided the appropriate final test concentrations required for the test and control articles ([…], and 0.002 μM).
(§4) Test and control articles were incubated with human bone marrow hematopoietic progenitor cells. After 14 days, cell colonies were assessed.
(§5) To calculate the concentration of 50% and 90% inhibition of colony growth (IC50 and IC90) for each test article, a dose response curve was generated plotting the log of the test article concentration versus the percentage of control colony growth using GraphPad Prism. […] The IC50 and IC90 values for both test and control articles were derived from an interpolation of the curve fit. In cases where the IC50/90 value reported by GraphPad Prism is a value beyond the range of concentrations that were actually tested, if this value is more than 4 times the highest concentration tested, or where GraphPad Prism cannot calculate an IC50/90 value, notations of >5 μM (for test article compound 1) are used.

[2] = system: myeloid hematopoietic progenitor cells derived from human bone marrow; assay: myeloid colony formation of hematopoietic progenitor cells; assay type: cell-based; conditions: 336 h, human bone marrow progenitor cells
Method: as §1, §2, §3, §4, §5

Cc1[nH]c2ccccc2c1CCNCc1ccc(/C=C/C(=O)NO)cc1 [Panobinostat, reference compound] showed an IC50 ([1]; 14 days, read-out: IC50, inhibition of erythroid colony formation) of less than 10 nM, an IC90 ([1]; colony growth after 14 days) of 7.5 ng/mL (≈ 0.0215 µM) and an IC50 ([1]; colony growth after 14 days, read-out: Erythroid IC50) of 6.4 ng/mL. The IC50 ([2]; 14 days, read-out: IC50, inhibition of myeloid colony formation) was less than 10 nM, the IC90 ([2]; colony growth after 14 days) was 8.1 ng/mL (≈ 0.0232 µM) and the IC50 ([2]; colony growth after 14 days, read-out: Myeloid IC50) was 7.4 ng/mL.
